Measured values reported in patent EP0908457B1, “3-(1,2-benzisothiazol- and isoxazol-5-Y1)-2,4(1H,3H)-pyrimidinedione or thione and 3-(1,2-benzisothiazol- and isoxazol-5-y1)-4(3H)-pyrimidinone or thione herbicidal agents” (BASF AKTIENGESELLSCHAFT, priority 1997, dated 1999).

Experiments:
Cyperus iria = experiment: Preemergence weed control under flooded paddy conditions, CYPIR (Rice Flatsedge); format: in vivo; settings: flooded paddy; for herbicidal effect rating, CYPIR: rated three to four weeks after treatment; for CYPIR: herbicidal effect rating 0-9, three to four weeks after treatment; on herbicidal effect rating, CYPIR: meaning of each grade not given here
[1] = system: Echinochloa oryzoides (Ard.) Fritsch.; experiment: Preemergence weed control under flooded paddy conditions, ECHORC (Watergrass (Calif.)); format: in vivo; settings: flooded paddy; for herbicidal effect rating, ECHORC: rated three to four weeks after treatment; for ECHORC: herbicidal effect rating 0-9, three to four weeks after treatment; on herbicidal effect rating, ECHORC: meaning of each grade not given here
[2] = system: Oryza sativa, (L.) Tebonnet; experiment: Rice tolerance to post-transplant applications under flooded paddy conditions (Example 187), ORYSAT (Rice, Tebonnet); settings: for herbicidal effect rating, ORYSAT (rice tolerance) / herbicidal effect rating ORYSAT: rated three to four weeks after treatment; for ORYSAT: herbicidal effect rating 0-9, three to four weeks after treatment; on herbicidal effect rating ORYSAT: meaning of each grade not given here
Sagittaria pygmaea, L. = experiment: Preemergence weed control under flooded paddy conditions, SAGPY (Arrowhead (Pygmaea)); format: in vivo; settings: flooded paddy; for herbicidal effect rating, SAGPY: rated three to four weeks after treatment; for SAGPY: herbicidal effect rating 0-9, three to four weeks after treatment; on herbicidal effect rating, SAGPY: meaning of each grade not given here
[3] = system: Monochoria vaginalis, Presl.; experiment: Preemergence weed control under flooded paddy conditions, MOOVA (Monochoria); format: in vivo; settings: flooded paddy; for herbicidal effect rating, MOOVA: rated three to four weeks after treatment; for MOOVA: herbicidal effect rating 0-9, three to four weeks after treatment; on herbicidal effect rating, MOOVA: meaning of each grade not given here
[4] = system: Cyperus serotinus, Rottb.; experiment: Preemergence weed control under flooded paddy conditions, CYPSE (Flatsedge); format: in vivo; settings: for herbicidal effect rating, CYPSE: rated three to four weeks after treatment; for CYPSE: herbicidal effect rating 0-9, three to four weeks after treatment; on herbicidal effect rating, CYPSE: meaning of each grade not given here
[5] = 0.0313 kg/ha, preemergence weeds
[6] = 0.0625 kg/ha, preemergence weeds
[7] = 0.1250 kg/ha, preemergence weeds
[8] = 0.2500 kg/ha, preemergence weeds
[9] = 0.0320 kg/ha, preemergence weeds
[10] = 0.0620 kg/ha, preemergence weeds
[11] = Rate 0.0320 kg/ha, preemergence weeds
[12] = Rate 0.0620 kg/ha, preemergence weeds
[13] = Rate 0.1250 kg/ha, preemergence weeds
[14] = Rate 0.2500 kg/ha, preemergence weeds
[15] = Rate 0.0320 kg/ha, preemergence
[16] = Rate 0.0620 kg/ha, preemergence
[17] = Rate 0.1250 kg/ha, preemergence
[18] = Rate 0.2500 kg/ha, preemergence

Cn1c(C(F)(F)F)cc(=O)n(-c2ccc3snc(N4CCOCC4)c3c2)c1=O [Example 116, 1-Methyl-3-(3-morpholino-1,2-benzisothiazol-5-yl)-6-(trifluoromethyl)-2,4(1H,3H)-pyrimidinedione]
herbicidal effect rating, CYPIR (Cyperus iria; [5]): 0.0
herbicidal effect rating, CYPIR (Cyperus iria; [6]): 0.0
herbicidal effect rating, CYPIR (Cyperus iria; [7]): 0.0
herbicidal effect rating, CYPIR (Cyperus iria; [8]): 0.0
herbicidal effect rating, ECHORC [1, 5]: 0.0
herbicidal effect rating, ECHORC [1, 6]: 0.0
herbicidal effect rating, ECHORC [1, 7]: 0.0
herbicidal effect rating, ECHORC [1, 8]: 0.0
herbicidal effect rating, ORYSAT (rice tolerance) ([2]; 0.0313 kg/ha): 0.0
herbicidal effect rating, ORYSAT (rice tolerance) ([2]; 0.0625 kg/ha): 0.0
herbicidal effect rating, ORYSAT (rice tolerance) ([2]; 0.1250 kg/ha): 0.0
herbicidal effect rating, ORYSAT (rice tolerance) ([2]; 0.2500 kg/ha): 0.0
herbicidal effect rating, SAGPY (Sagittaria pygmaea, L.; [5]): 0.0
herbicidal effect rating, SAGPY (Sagittaria pygmaea, L.; [6]): 0.0
herbicidal effect rating, SAGPY (Sagittaria pygmaea, L.; [7]): 0.0
herbicidal effect rating, SAGPY (Sagittaria pygmaea, L.; [8]): 0.0
herbicidal effect rating, MOOVA [3, 5]: 0.0
herbicidal effect rating, MOOVA [3, 6]: 2.0
herbicidal effect rating, MOOVA [3, 7]: 8.0
herbicidal effect rating, MOOVA [3, 8]: 8.0
herbicidal effect rating, CYPSE [4, 5]: 0.0
herbicidal effect rating, CYPSE [4, 6]: 0.0
herbicidal effect rating, CYPSE [4, 7]: 0.0
herbicidal effect rating, CYPSE [4, 8]: 0.0

Cn1c(C(F)(F)F)cc(=O)n(-c2ccc3snc(C(=O)Nc4nc(C(F)(F)F)c(Cl)s4)c3c2)c1=O [Example 439, 1,2-Benzisothiazole-3-carboxamide, N-[5-chloro-4-(trifluoromethyl)thiazol-2-yl]-5-[3,6-dihydro-3-methyl-2,6-dioxo-4-(trifluoromethyl)-1(2H)-pyrimidinyl]-]
CYPIR (Cyperus iria; [9]): 1.0
CYPIR (Cyperus iria; [10]): 3.0
CYPIR (Cyperus iria; [7]): 4.0
CYPIR (Cyperus iria; [8]): 5.0
ECHORC [1, 9]: 2.0
ECHORC [1, 10]: 3.0
ECHORC [1, 7]: 6.0
ECHORC [1, 8]: 6.0
ORYSAT ([2]; 0.0320 kg/ha): 0.0
ORYSAT ([2]; 0.0620 kg/ha): 0.0
ORYSAT ([2]; 0.1250 kg/ha): 0.0
ORYSAT ([2]; 0.2500 kg/ha): 0.0
SAGPY (Sagittaria pygmaea, L.; [9]): 0.0
SAGPY (Sagittaria pygmaea, L.; [10]): 0.0
SAGPY (Sagittaria pygmaea, L.; [7]): 0.0
SAGPY (Sagittaria pygmaea, L.; [8]): 3.0
MOOVA [3, 9]: 5.0
MOOVA [3, 10]: 6.0
MOOVA [3, 7]: 7.0
MOOVA [3, 8]: 7.0
CYPSE [4, 9]: 0.0
CYPSE [4, 10]: 0.0
CYPSE [4, 7]: 0.0
CYPSE [4, 8]: 0.0

Cn1c(C(F)(F)F)cc(=O)n(-c2ccc3snc(COC(=O)c4ccccc4)c3c2)c1=O [Example 143, 3-[3-(Hydroxymethyl)-1,2-benzisothiazol-5-yl]-1-methyl-6-(trifluoromethyl)-2,4(1H,3H)-pyrimidinedione, benzoate (ester)]
herbicidal effect rating, CYPIR (Cyperus iria; [5]): 0.0
herbicidal effect rating, CYPIR (Cyperus iria; [6]): 0.0
herbicidal effect rating, CYPIR (Cyperus iria; [7]): 0.0
herbicidal effect rating, CYPIR (Cyperus iria; [8]): 0.0
herbicidal effect rating, ECHORC [1, 5]: 0.0
herbicidal effect rating, ECHORC [1, 6]: 0.0
herbicidal effect rating, ECHORC [1, 7]: 2.0
herbicidal effect rating, ECHORC [1, 8]: 6.0
herbicidal effect rating, ORYSAT (rice tolerance) ([2]; 0.0313 kg/ha): 3.0
herbicidal effect rating, ORYSAT (rice tolerance) ([2]; 0.0625 kg/ha): 3.0
herbicidal effect rating, ORYSAT (rice tolerance) ([2]; 0.1250 kg/ha): 3.0
herbicidal effect rating, ORYSAT (rice tolerance) ([2]; 0.2500 kg/ha): 4.0
herbicidal effect rating, SAGPY (Sagittaria pygmaea, L.; [5]): 0.0
herbicidal effect rating, SAGPY (Sagittaria pygmaea, L.; [6]): 0.0
herbicidal effect rating, SAGPY (Sagittaria pygmaea, L.; [7]): 0.0
herbicidal effect rating, SAGPY (Sagittaria pygmaea, L.; [8]): 0.0
herbicidal effect rating, MOOVA [3, 5]: 9.0
herbicidal effect rating, MOOVA [3, 6]: 9.0
herbicidal effect rating, MOOVA [3, 7]: 9.0
herbicidal effect rating, MOOVA [3, 8]: 9.0
herbicidal effect rating, CYPSE [4, 5]: 0.0
herbicidal effect rating, CYPSE [4, 6]: 0.0
herbicidal effect rating, CYPSE [4, 7]: 0.0
herbicidal effect rating, CYPSE [4, 8]: 0.0

CC(O)c1nsc2ccc(-n3c(=O)cc(C(F)(F)F)n(C)c3=O)cc12 (stereo not drawn) [Example 308, 2,4(1H,3H)-Pyrimidinedione, 3-[3-(1-hydroxyethyl)-1,2-benzisothiazol-5-yl]-1-methyl-6-(trifluoromethyl)-]
herbicidal effect rating, CYPIR (Cyperus iria; [11]): 0.0
herbicidal effect rating, CYPIR (Cyperus iria; [12]): 0.0
herbicidal effect rating, CYPIR (Cyperus iria; [13]): 0.0
herbicidal effect rating, CYPIR (Cyperus iria; [14]): 0.0
herbicidal effect rating, ECHORC [1, 11]: 5.0
herbicidal effect rating, ECHORC [1, 12]: 5.0
herbicidal effect rating, ECHORC [1, 13]: 6.0
herbicidal effect rating, ECHORC [1, 14]: 9.0
herbicidal effect rating ORYSAT ([2]; Rate 0.0320 kg/ha): 5.0
herbicidal effect rating ORYSAT ([2]; Rate 0.0620 kg/ha): 5.0
herbicidal effect rating ORYSAT ([2]; Rate 0.1250 kg/ha): 6.0
herbicidal effect rating ORYSAT ([2]; Rate 0.2500 kg/ha): 7.0
herbicidal effect rating, SAGPY (Sagittaria pygmaea, L.; [11]): 0.0
herbicidal effect rating, SAGPY (Sagittaria pygmaea, L.; [12]): 0.0
herbicidal effect rating, SAGPY (Sagittaria pygmaea, L.; [13]): 3.0
herbicidal effect rating, SAGPY (Sagittaria pygmaea, L.; [14]): 9.0
herbicidal effect rating, MOOVA [3, 11]: 0.0
herbicidal effect rating, MOOVA [3, 12]: 0.0
herbicidal effect rating, MOOVA [3, 13]: 0.0
herbicidal effect rating, MOOVA [3, 14]: 0.0
herbicidal effect rating, CYPSE [4, 11]: 0.0
herbicidal effect rating, CYPSE [4, 12]: 0.0
herbicidal effect rating, CYPSE [4, 13]: 3.0
herbicidal effect rating, CYPSE [4, 14]: 9.0

Cc1ccc(S(=O)(=O)NC(=O)c2nsc3ccc(-n4c(=O)cc(C(F)(F)F)n(C)c4=O)cc23)cc1 [Example 353, 1,2-Benzisothiazole-3-carboxamide, 5-[3,6-dihydro-3-methyl-2,6-dioxo-4-(trifluoromethyl)-1(2H)-pyrimidinyl]-N-(p-tolylsulfonyl)-]
herbicidal effect rating, CYPIR (Cyperus iria; [15]): 0.0
herbicidal effect rating, CYPIR (Cyperus iria; [16]): 0.0
herbicidal effect rating, CYPIR (Cyperus iria; [17]): 1.0
herbicidal effect rating, CYPIR (Cyperus iria; [18]): 3.0
herbicidal effect rating, ECHORC [1, 15]: 0.0
herbicidal effect rating, ECHORC [1, 16]: 2.0
herbicidal effect rating, ECHORC [1, 17]: 2.5
herbicidal effect rating, ECHORC [1, 18]: 3.0
herbicidal effect rating ORYSAT ([2]; Rate 0.0320 kg/ha): 2.5
herbicidal effect rating ORYSAT ([2]; Rate 0.0620 kg/ha): 3.0
herbicidal effect rating ORYSAT ([2]; Rate 0.1250 kg/ha): 3.5
herbicidal effect rating ORYSAT ([2]; Rate 0.2500 kg/ha): 4.0
herbicidal effect rating, SAGPY (Sagittaria pygmaea, L.; [15]): 0.0
herbicidal effect rating, SAGPY (Sagittaria pygmaea, L.; [16]): 0.0
herbicidal effect rating, SAGPY (Sagittaria pygmaea, L.; [17]): 0.0
herbicidal effect rating, SAGPY (Sagittaria pygmaea, L.; [18]): 0.0
herbicidal effect rating, MOOVA [3, 15]: 3.5
herbicidal effect rating, MOOVA [3, 16]: 6.5
herbicidal effect rating, MOOVA [3, 17]: 8.0
herbicidal effect rating, MOOVA [3, 18]: 8.0
herbicidal effect rating, CYPSE [4, 15]: 0.0
herbicidal effect rating, CYPSE [4, 16]: 0.0
herbicidal effect rating, CYPSE [4, 17]: 1.5
herbicidal effect rating, CYPSE [4, 18]: 2.5
